Laboratory results reported in patent US12540112B2, “Crystal form I of curcumin derivative, preparation method therefor and application thereof” (WENZHOU MEDICAL UNIVERSITY, priority 2019, dated 2026).
Several values for one entry are separate records, joined by “and”; a condition that tells them apart may be missing. Equal values may be shown once. Entries after “also recorded” stand apart in the source; their conditions may differ.

Assays:
Assay type in all cases: physicochemical
[1] = Two-week solid-state stability determination (XRPD and HPLC); settings: 2 weeks; for Purity after storage: HPLC, initial purity 99.72%; for Stability of crystalline shape: XRPD
Source text: […] Samples are taken after 2 weeks to test the stability of the samples by XRPD and HPLC.

[2] = Fluidity test: angle of repose measurement
Method: (1) Angle of Repose Measurement
An iron stand configured to measure the angle of repose is placed in a horizontal position, a funnel is fixed on the iron stand, and a plastic receiving container is placed directly under the funnel. The crystal form I is added to the funnel to make the material flow down slowly from the funnel to form a cone shape. The height of the bottom of the funnel and the top of the flowed-down material is maintained at a height of about 2-4 cm. The measurement is repeated 5 times to calculate the average value.

[3] = Moisture absorption determination according to the Pharmacopoeia
Method: In this embodiment, the moisture absorption of crystal form I is investigated according to the Pharmacopoeia, and the details are as follows: • (1) 2 dry glass weighing bottles with stoppers (outer diameter of 50 mm, height of 30 mm) are taken and placed in a desiccator where a saturated solution of ammonium chloride is placed in a lower part. The weighing bottles are placed with open lips, the lid of the desiccator is closed, and the desiccator is placed in a constant temperature room at 25° C. and left overnight. • (2) after left overnight, the weighing bottles are taken out and accurately weighted, results of which are m1 1 and m1 2 respectively. • (3) an appropriate amount of the API sample is taken and laid flat in a weighed weighing bottle (the thickness of the sample is about 1 mm), and accurately weighted, results of which are m2 1 and m2 2 respectively. • (4) the weighing bottles are placed with open lips and placed with the bottle caps in the desiccator with the saturated solution of ammonium chloride in the lower part, the lid of the desiccator is closed, and the desiccator is placed in a thermostat at 25° C. for 24 hours. • (5) after leaving for 24 hours, the weighing bottles are capped and accurately weighted, results of which are m3 1 and m3 2 respectively. • (6) the calculation formula for moisture absorption weight gain is as follows: Weight gain percentage=100%×(m3−m2)/(m2−m1)

[4] = Fluidity test: bulk density and tap density determination
Method: (2) Bulk Density and Tap Density Determination
The crystal form I is added to a measuring cylinder, and the weight and volume of the material added are calculated. A densitometer is used to tap and record the volume of the material after tapping.

Purity after storage ([1]; 25° C./60% RH/60% RH): 99.70%
Stability of crystalline shape ([1]; 25° C./60% RH/60% RH): YES
Purity after storage ([1]; 25° C./92.5% RH): 99.72%
Stability of crystalline shape ([1]; 25° C./92.5% RH): YES
Purity after storage ([1]; 40° C./75% RH): 99.70%
Stability of crystalline shape ([1]; 40° C./75% RH): YES
Purity after storage ([1]; 60° C./75% RH): 99.68%
Stability of crystalline shape ([1]; 60° C./75% RH): YES
change of purity on storage ([1]; all storage conditions): does not change significantly
stability of crystal form ([1]; all storage conditions): remains stable
angle of repose, Average value ([2]; average of 5 repeated measurements): 41.80 °
fluidity ([2]; judgement in words): good fluidity; also recorded: acceptable
Weight gain percentage, Average value ([3]; 25° C., saturated ammonium chloride solution desiccator, 24 hours, average of 2): 0.16%
Weight gain percentage (moisture absorption) ([3]; 25° C., saturated ammonium chloride solution desiccator, 24 hours, listed as C66-HC-006-13-06): 0.17% and 0.15%
moisture absorption ([3]; judgement in words): no or almost no moisture absorption
Carr index ([4]; (tap density − bulk density)/tap density × 100): 21.60
ρ (bulk density) ([4]; M 29.85 g, V 44.0 mL): 0.678 g/mL
ρ-tapped (tap density) ([4]; M 29.85 g, V-tapped 34.5 mL): 0.865 g/mL
fluidity (from Carr index) ([4]; judgement in words): good fluidity
Compound: O=C1/C(=C/c2ccccc2C(F)(F)F)CCC/C1=C\c1ccccc1C(F)(F)F [crystal form I]
angle of repose ([2]; single measurements 1 to 5, funnel method): 41.30° and 40.86° and 42.93° and 41.87° and 42.02°
